Test system: Polycyclic aromatic hydrocarbon binding protein
Details: Mus musculus
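Note: competitive displacement of radiolabeled [3H]benzo[a]pyrene from its binding site on the protein taken from mouse liver.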

Description: Competition for [3H]benzo[a]pyrene-binding site of polycyclic aromatic hydrocarbon binding protein (PBP) from mouse liver

Row | SMILES | Delta Gm
1 | Nc1cccc2cc3ccccc3cc12 | 15.2
2 | O[C@@H]1C=Cc2cc3ccc4cccc5ccc(c2[C@H]1O)c3c45 | 18.9
3 | Nc1ccc2c(c1)Cc1ccccc1-2 | 11.9
4 | c1ccc2c(c1)cc1ccc3cccc4ccc2c1c34 | 19
5 | O[C@H]1C=C2c3ccccc3-c3cccc(c32)[C@@H]1O | 17.7
6 | Oc1ccc2cc3ccc4cccc5ccc(c2c1)c3c45 | 18.3
7 | c1cc2ccc3cccc4ccc(c1)c2c34 | 16.3
8 | O[C@H]1c2cccc3ccc4c5ccccc5cc(c4c23)[C@@H]1O | 17.4
9 | c1ccc2cc3c4ccccc4c4ccccc4c3cc2c1 | 18.6
10 | c1ccc2c(c1)-c1cccc3cccc-2c13 | 17.8
11 | Cc1ccc2cc3c(ccc4ccccc43)c3c2c1CC3 | 17.4
12 | C1=Cc2cc3cccc4ccc5ccc1c2c5c43 | 15.8
13 | Nc1cccc2ccccc12 | 14.4
14 | O[C@H]1C=Cc2c(cc3ccc4cccc5ccc2c3c45)[C@@H]1O | 18.4
15 | Nc1cc2ccccc2c2ccccc12 | 15.2
16 | c1ccc2c(c1)ccc1c3ccccc3ccc21 | 17.9

From ChEMBL document CHEMBL1125172, “Voronoi binding site model of a polycyclic aromatic hydrocarbon binding protein” (J Med Chem, 1990)
